Where two headings read alike, the source gives them in different places.
How the values were obtained:
FLT3 = tested on: FLT3; parameters: method as in PMID 15126317; conditions: cited from earlier work
MDA-MB-468 cells [1] = test: Anchorage-dependent proliferation, MTT assay, MDA-MB-468; assay type: cell-based; conditions: Homo sapiens, 48 h
Protocol: (§1) Cells were cultured in 96 well plates at a density of 2,000 cells/ well. The cells with siRNA transfection or with the inhibitor treatment were monitored for viability using MTT at indicated time points. At the given time points, MTT reagent was added to the media and allowed to incubate for 3 h at 37° C in a humidified incubator at 5% CO2. The medium was then removed and MTT crystals were dissolved in DMSO (Sigma). Cell viability was quantified by reading the plates at an absorbance of 540 nm on a μQuant microplate reader using KC4 data analysis software (Bio-Tek Instruments). The 540 nm absorbance of vehicle-treated wells was used to define 100% proliferation. Each condition was performed in replicates of six wells.

HT29 cells = test: Anchorage-dependent proliferation, MTT assay, HT29; assay type: cell-based; conditions: Homo sapiens, HT-29, 48 h
Protocol: as §1

MDA-MB-468 cells [2] = test: Soft agar anchorage-independent growth, MDA-MB-468; assay type: cell-based, human; conditions: MDA-MB-468, Ruxolitinib 30 μM
Protocol: For analysis of anchorage-independent growth, log-phase growing cells were trypsinized, and triplicates of 1.5 × 10^3 cells per well were seeded in regular growth medium containing 0.3% agar (Sigma) and drug added at the indicated concentrations, as previously described. The cells were allowed to incubate at 37° C for 3 weeks and fed once per week with the inhibitor before 1 mg/ml MTT (Sigma) solution was added overnight to facilitate colony counting. Colonies were scored and counted according to size, as previously described.

HT-29 cells [3] = test: Soft agar anchorage-independent growth, HT-29; assay type: cell-based, human; conditions: HT-29, Ruxolitinib 20 μM
Protocol: The cells were allowed to incubate at 37° C for 3 weeks and fed once per week with the inhibitor before 1 mg/ml MTT (Sigma) solution was added overnight to facilitate colony counting. Colonies were scored and counted according to size, as previously described.

MDA-MB-468 cells [4] = test: Matrigel Transwell invasion, MDA-MB-468; assay type: cell-based, human; conditions: MDA-MB-468, Ruxolitinib 30 μM
Protocol: Cells were transfected with Aurora A and JAK2 for 48 h or with siRNA for 72 h or treated with the compounds for 24 h and then were trypsinized and resuspended in serum-free medium and placed in the upper chamber of the Matrigel-coated (0.8 μg/μL, BD Biosciences, San Diego, CA) Transwell insert (from 2 to 5 × 10^4 cells/well) and with 0.5% DMSO or the compounds at the indicated dose. Medium containing 10%FBS was placed in the lower chamber. […] Invading cells in the membrane were fixed with 100% methanol and stained with fresh prepared 0.2% crystal violet. Noninvasive cells in the upper chamber were removed by wiping the upper side of the membrane with a cotton swab, and cells located on the underside of the filter were observed and photographed under Olympus stereo microscope. The number of invading cells was counted using Image-Pro analysis software.

HT-29 cells [5] = test: Matrigel Transwell invasion, HT-29; assay type: cell-based, human; conditions: HT-29, Ruxolitinib 40 μM
Text: Medium containing 10%FBS was placed in the lower chamber. […] Invading cells in the membrane were fixed with 100% methanol and stained with fresh prepared 0.2% crystal violet. Noninvasive cells in the upper chamber were removed by wiping the upper side of the membrane with a cotton swab, and cells located on the underside of the filter were observed and photographed under Olympus stereo microscope. The number of invading cells was counted using Image-Pro analysis software.

[6] = tested on: Aurora A auto-phosphorylation (Thr-288); test: Western blot, Aurora A auto-phosphorylation in nocodazole-synchronized MDA-MB-468 cells; assay type: cell-based, human; conditions: MDA-MB-468, nocodazole-synchronized, 2 h
Protocol: (§2) Cells were plated in 6 cm dishes at a density of 2 × 10^5 cells/dish. Aurora A activity was determined by measuring autophosphorylation of Aurora A on Thr288 in cells that were synchronized by treatment with nocodazole (100 ng/mL) for 20 h prior to the treatment with Aurora inhibitors, whereas Aurora B activity was determined by measuring phosphorylation of histone H3 on Ser-10 (p-HH3). […] Cells were harvested after 2 h of treatment and processed for SDS−PAGE and Western blotting.
(§3) Cells were harvested from experiments of ectopic expression or knockdown using siRNA or the treatment with the inhibitors, washed, and then lysed using lysis buffer as previously described. The protein concentration of the lysate was measured, and the lysate was mixed with gel electrophoresis loading buffer, boiled for 5 minutes, separated by SDS-PAGE, and transferred to nitrocellulose membranes.

[7] = tested on: P-Histone H3 (Ser-10), Aurora B substrate; test: Western blot, phosphorylation of Histone H3 in MDA-MB-468 cells; assay type: cell-based, human
Protocol: as §2, §3

[8] = tested on: P-STAT3 (Y705), JAK2 substrate; test: Western blot, phosphorylation of STAT3 in MDA-MB-468 cells; assay type: cell-based, human
Protocol: as §2, §3

P-Histone H3 = test: Western blot, phosphorylation of Histone H3 in HT-29 cells; assay type: cell-based, human; conditions: HT-29, Ruxolitinib 20 μM
Protocol: as §2, §3

P-STAT3 = test: Western blot, phosphorylation of STAT3 in HT-29 cells; assay type: cell-based, human; conditions: HT-29, Ruxolitinib 20 μM
Protocol: as §2, §3

[9] = tested on: PARP cleavage and Caspase 3 activation in MDA-MB-468 cells; test: Apoptosis by Western blot of PARP cleavage and Caspase 3 activation, MDA-MB-468; assay type: cell-based, human; conditions: MDA-MB-468, single agent, low concentration, e.g. Ruxolitinib 0.4 μM
Protocol: Cells were harvested from experiments of ectopic expression or knockdown using siRNA or the treatment with the inhibitors, washed, and then lysed using lysis buffer as previously described. The protein concentration of the lysate was measured, and the lysate was mixed with gel electrophoresis loading buffer, boiled for 5 minutes, separated by SDS-PAGE, and transferred to nitrocellulose membranes. […] To evaluate the effect of inhibitors on cell cycle progression, cells were treated with inhibitors at indicated dose or DMSO control and then harvested, fixed with 70% ethanol pretreated with RNase, and stained with propidium iodide (PI) (Sigma) as previously described for flow cytometry analysis. For the detection of apoptosis, cells were cultured for 24 h in medium with inhibitors at indicated dose or DMSO control and harvested for SDS-PAGE and Western blotting. The siRNA or drug treatment-induced apoptosis was detected by Western blot analysis of the cleavage of PARP and caspase-3.

MDA-MB-468 cells [10] = test: Cell-cycle analysis by flow cytometry, MDA-MB-468; assay type: cell-based, human; conditions: MDA-MB-468, same conditions, data not shown
Protocol: To evaluate the effect of inhibitors on cell cycle progression, cells were treated with inhibitors at indicated dose or DMSO control and then harvested, fixed with 70% ethanol pretreated with RNase, and stained with propidium iodide (PI) (Sigma) as previously described for flow cytometry analysis. For the detection of apoptosis, cells were cultured for 24 h in medium with inhibitors at indicated dose or DMSO control and harvested for SDS−PAGE and Western blotting. The siRNA or drug treatment-induced apoptosis was detected by Western blot analysis of the cleavage of PARP and caspase-3.

With N#CC[C@H](C1CCCC1)n1cc(-c2ncnc3[nH]ccc23)cn1 [Ruxolitinib] the IC50 (MDA-MB-468 cells [1]; MDA-MB-468, MTT) was 26 µM, the inhibition at 35 µM (MDA-MB-468 cells [1]; MDA-MB-468, Ruxolitinib 35 μM) was 51.2% and the IC50 (HT29 cells; HT29, MTT) was 44.7 µM. For the same molecule, the inhibition at 20 µM (HT29 cells; HT29, Ruxolitinib 20 μM) was 14.3%, the inhibition at 30 µM (MDA-MB-468 cells [2]; Homo sapiens) was 23.7% and the soft agar colonies (MDA-MB-468 cells [2]; vehicle 131) was 100 colonies. For the same molecule, the soft agar colonies (HT-29 cells [3]; vehicle 129) was 72 colonies, the inhibition at 20 µM (HT-29 cells [3]; Homo sapiens, read-out: inhibition of soft agar colonies) was 44.2% and the inhibition at 30 µM (MDA-MB-468 cells [4]; Homo sapiens) was 48.6%. The invaded cells (MDA-MB-468 cells [4]; vehicle 344) was 177 cells, the invaded cells (HT-29 cells [5]; vehicle 1066) was 305 cells and the inhibition at 40 µM (HT-29 cells [5]; Homo sapiens) was 71.4%. The “effect on auto-phosphorylation of Aurora A” value [6] was “not that of Histone H3 or the auto-phosphorylation of Aurora A”, the “effect on P-Histone H3” value ([7]; MDA-MB-468, Ruxolitinib 30 μM) was “not P-Histone H3” and the “effect on phosphorylation of Histone H3 (Ser-10)” value ([7]; MDA-MB-468, increasing concentrations, 2 h) was “not that of Histone H3”. The “effect on P-STAT3” value [8] was “inhibited P-STAT3”, the “effect on phosphorylation of STAT3 (Y705)” value [8] was “able to inhibit the phosphorylation of STAT3” and the “effect on P-Histone H3” value (P-Histone H3) was “not P-Histone H3”. For the same molecule, the “effect on P-STAT3” value (P-STAT3) was “inhibited P-STAT3” and the PARP cleavage [9] was “neither Alisertib nor Ruxolitinib induced PARP cleavage”.
For Cc1cc(Nc2cc(N3CCN(C)CC3)nc(Sc3ccc(NC(=O)C4CC4)cc3)n2)[nH]n1 [VX-680, Tozasertib], the “effect on auto-phosphorylation of Aurora A” value [6] was “highly effective at inhibiting”, the “effect on phosphorylation of Histone H3 (Ser-10)” value [7] was “highly effective at inhibiting” and the G2/M accumulation (MDA-MB-468 cells [10]) was “induced a significant G2/M accumulation”.

— paper PMC4102782, “Dual Aurora A and JAK2 kinase blockade effectively suppresses malignant transformation” (Oncotarget, 2014)
